The results in this text go back to PubChem BioAssay AID789 (SRMLSC, 2007).

Structures are written as SMILES. The source made the active and inactive calls. The rule behind the calls is not given here.

In experiment [1] the test system is S. cerevisiae apl2Δ mutant growth inhibition. As to the kind of experiment: growth inhibition of apl2Δ yeast, dose response, selectivity assay for post-Golgi transport modulator project, S. cerevisiae, secondary screen, background strain comparison (AID 789).
Experiment in experiment [2]: as above
The conditions noted are these: S. cerevisiae background (wild-type parent) strain growth inhibition.

In general, IC50 refers to the concentration that gives 50% inhibition. For the compound `CCCc1cc(NCCCCO)n2c(nc3ccccc32)c1C#N`, the IC50 in experiment [1] was > 10 µM (inactive); in experiment [2], more than 10 µM.
For the compound `Cc1cc(NCCCN2CCOCC2)n2ncc(-c3ccc(Cl)cc3)c2n1`, the IC50 in experiment [1] is > 10 µM (inactive); in experiment [2], more than 10 µM.
As to `CCN(CC)c1ccc(CN2CC=C(c3ccc(F)cc3)CC2)cc1`, the IC50 in experiment [1] is 17.3 µM; in experiment [2], 25.8 µM.
For `CCc1ccc(N(C(=O)c2csnn2)C(C(=O)NC(C)(C)C)c2ccncc2)cc1` (stereo unspecified), the IC50 was > 10 µM (inactive) in experiment [1] and more than 10 µM in experiment [2].
As to `O=[N+]([O-])c1cc(C(F)(F)F)ccc1N/N=C/c1cc2ccccc2nc1Cl`, the IC50 in experiment [1] is > 10 µM (inactive); in experiment [2], more than 10 µM.
With `CN1/C(=C/C2CC(=O)NC2=O)C(C)(C)c2ccccc21` (stereo unspecified), the IC50 in experiment [1] is > 10 µM (inactive); in experiment [2] it was more than 10 µM.
The matching figures for `O=C(NC1CCCC1)C(c1ccsc1)N(C(=O)Cc1cccs1)c1ccc(F)cc1` (stereo unspecified): > 10 µM (inactive) and more than 10 µM.
For `O=C(COc1ccc(Br)cc1F)NC1CCN(Cc2ccccc2)CC1`, in that order: > 10 µM (inactive) and more than 10 µM.
As to `N#CC1=C(N)C(C#N)(C#N)C(c2cccnc2)C2CC(c3ccccc3)CC=C12` (stereo unspecified), the IC50 is 4.06 µM (inactive) in experiment [1] and 2.97 µM in experiment [2].
`C=CCc1ccccc1OCC(O)CN1CCN(Cc2ccc3c(c2)OCO3)CC1` (stereo unspecified): the IC50 was 19.6 µM in experiment [1] and more than 10 µM in experiment [2].
As for `O=C(Nc1nc(-c2ccccn2)cs1)c1ncc(Cl)c(Cl)c1Cl`, the IC50 in experiment [1] is 19.3 µM (inactive); in experiment [2] it was 13.3 µM.
Turning to `COCCCNc1ccnc2c(Cl)cccc12`, the IC50 in experiment [1] was > 10 µM (inactive); in experiment [2], more than 10 µM.
The matching figures for `Cc1cccc(-c2c3c(=O)n(C)c(=O)n(C)c3cn2C2CCCCC2)c1`: > 10 µM (inactive) and more than 10 µM.
Consider `Cc1ccc(SC(C)C(=O)Nc2ncn[nH]2)cc1` (stereo unspecified), for which the IC50 was > 10 µM (inactive) in experiment [1] and more than 10 µM in experiment [2].
Consider `O=C(NCc1ccc2c(c1)OCO2)C1CCCN1C(=O)Nc1ccccc1` (stereo unspecified), for which the IC50 in experiment [1] was > 10 µM (inactive); in experiment [2], more than 10 µM.
The matching figures for `C=C(C)C1CC=C(CN2CCC(C(=O)OCC)CC2)CC1` (stereo unspecified): > 10 µM (inactive) and more than 10 µM.
For `O=C(NCc1ccc2c(c1)OCO2)c1ccc(-n2cnnn2)cc1`, in that order: > 10 µM (inactive) and more than 10 µM.
In the case of `COc1cccc(C(=O)N2CCN(C3CCC(c4ccccc4)CC3)CC2)c1OC` (stereo unspecified), the values for the concentration for half-maximal inhibition (IC50) in experiment [1] and in experiment [2] were 14.6 µM and 23.9 µM, respectively.
Regarding `Cc1ccnc(N2C(=O)c3cccc4c([N+](=O)[O-])ccc(c34)C2=O)c1`, the IC50 in experiment [1] is 7.94 µM (inactive); in experiment [2], 4.22 µM.
Take `CCOC(=O)C1=C(N)N2C(=O)C(C)SC2=C(C(=O)OC)C1c1ccccc1OC` (stereo unspecified): the IC50 was 9.99 µM (inactive) in experiment [1] and 0.163 µM in experiment [2].
Regarding `O=C1OCC2=C1C(c1ccc(F)cc1)Sc1ccccc1N2` (stereo unspecified), the values for the IC50 in experiment [1] and in experiment [2] were > 10 µM (inactive) and more than 10 µM, respectively.
The matching figures for `Cc1ccc(C(C)C)c(OCCCN2CC(C)OC(C)C2)c1` (stereo unspecified): > 10 µM (inactive) and more than 10 µM.
Take `CC(C)Cc1[nH]c(=O)c(C#N)c2c1CCC2`: the IC50 in experiment [1] is > 10 µM (inactive); in experiment [2], more than 10 µM.
For the compound `O=C(COc1ccc(Cl)cc1)Nc1ccc(N2CCN(C(=O)c3ccco3)CC2)cc1`, the IC50 in experiment [1] was > 10 µM (inactive); in experiment [2], more than 10 µM.
As to `CCc1ccc(C(=O)/C=C/c2ccc([N+](=O)[O-])o2)cc1`, the IC50 in experiment [1] was > 10 µM (inactive); in experiment [2], 20.7 µM.
As to `Cc1nnc(-c2cccc(Br)c2)c2cn(-c3ccccc3Cl)nc12`, the IC50 in experiment [1] is > 10 µM (inactive); in experiment [2], 25.9 µM.
With `O=S(=O)(c1cnccc1N1CCN(/N=C/c2ccc(Br)cc2)CC1)N1CCCCC1`, the IC50 in experiment [1] is > 10 µM (inactive); in experiment [2] it was more than 10 µM.
As to `Cc1cc(C)n2nc(C(=O)NCc3ccccc3)cc2n1`, the values for the IC50 in experiment [1] and in experiment [2] were > 10 µM (inactive) and more than 10 µM, respectively.
`CCOC(=O)c1cccnc1SCc1cc(=O)n2ccccc2n1`: the IC50 was > 10 µM (inactive) in experiment [1] and more than 10 µM in experiment [2].
On to `Cc1ccc(C2N(c3ccc(Cl)c(Cl)c3)C(=O)C3CCCN32)o1` (stereo unspecified), for which the IC50 was > 10 µM (inactive) in experiment [1] and more than 10 µM in experiment [2].
As to `Cc1nn(Cc2cccc(C(=O)NC(C)c3ccc(C(C)(C)C)cc3)c2)c(C)c1[N+](=O)[O-]` (stereo unspecified), the IC50 in experiment [1] was > 10 µM (inactive); in experiment [2] it was more than 10 µM.
`O=C(c1ccc(Cl)cc1Cl)N1CCC(c2nc3c(nnn3Cc3ccco3)c(=O)[nH]2)CC1`: the IC50 in experiment [1] is > 10 µM (inactive); in experiment [2], more than 10 µM.
In the case of `Cc1c(C)c2cc(Cl)c(O)c(CN3CCN(C)CC3)c2oc1=O`, the values for the IC50 in experiment [1] and in experiment [2] were > 10 µM (inactive) and more than 10 µM, respectively.
Turning to `CC(=O)Nc1ccccc1NS(=O)(=O)c1ccc(Cl)cc1`, the IC50 was > 10 µM (inactive) in experiment [1] and more than 10 µM in experiment [2].
Turning to `O=C(Nc1nnc(-c2ccc3c(c2)CCCC3)o1)c1ccc(Cl)cc1Cl`, the results for the IC50 in experiment [1] and in experiment [2] were > 10 µM (inactive) and 3.46 µM, respectively.
As to `CCCC(=O)N1CCN(c2ccc(NC(=O)c3cc4ccccc4o3)cc2Cl)CC1`, the IC50 in experiment [1] is 12.5 µM; in experiment [2], 19.2 µM.
For `CCOc1cccc(C(=O)Nc2cccnc2)c1`, in that order: > 10 µM (inactive) and more than 10 µM.
The matching figures for `COCCNC(=O)C(c1ccc(F)cc1)N(CC1CCCO1)C(=O)CCC(=O)Nc1ccccn1` (stereo unspecified): > 10 µM (inactive) and more than 10 µM.
For the compound `CCc1cc(=O)oc2cc(C)c(CN3CCCC(C)C3)c(O)c12` (stereo unspecified), the IC50 in experiment [1] was > 10 µM (inactive); in experiment [2], more than 10 µM.
`O=C(CCl)c1ccc(Cc2ncc(C(F)(F)F)cc2Cl)s1`: the IC50 in experiment [1] was > 10 µM (inactive); in experiment [2] it was 8.68 µM.
In the case of `Clc1ccc2[nH]c3c(NCC4CCCO4)ncnc3c2c1` (stereo unspecified), the figures for the IC50 in experiment [1] and in experiment [2] were > 10 µM (inactive) and more than 10 µM, respectively.
With `Cc1cc(C(C)(C)C)ccc1OCCN1CCCC1`, the IC50 in experiment [1] was > 10 µM (inactive); in experiment [2] it was more than 10 µM.
For `CCN(CC)CCCN(Cc1cc2cc3c(cc2[nH]c1=O)OCCO3)C(=O)Nc1ccc(F)cc1`, the IC50 is > 10 µM (inactive) in experiment [1] and more than 10 µM in experiment [2].
`Cc1ccc(NS(=O)(=O)c2cc(C(=O)N3CCOCC3)ccc2C)cc1`: the IC50 in experiment [1] was > 10 µM (inactive); in experiment [2], more than 10 µM.
Turning to `N#Cc1cn(-c2ccccc2)nc1-c1cc2ccccc2oc1=O`, the results for the IC50 in experiment [1] and in experiment [2] were > 10 µM (inactive) and more than 10 µM, respectively.
In the case of `Cc1cc([N+](=O)[O-])c(-c2ccc(/C=N/n3cnnc3)o2)cc1Cl`, the values for the IC50 in experiment [1] and in experiment [2] were 0.526 µM (inactive) and 0.134 µM, respectively.
With `C=C(C)C1CC=C(CN2CC(C)OC(C)C2)CC1` (stereo unspecified), the IC50 in experiment [1] is > 10 µM (inactive); in experiment [2] it was more than 10 µM.
With `Cc1cc(C)nc(NC(=O)CSc2nn(C)c(=S)s2)n1`, the figures for the IC50 in experiment [1] and in experiment [2] were > 10 µM (inactive) and more than 10 µM, respectively.
